Measured values taken from the supplement of paper PMC10331698.
± gives the standard deviation of the averaged measurements.

Legend:
Assay in all cases: level (log10 ratio to DMSO vehicle control); higher = higher biomarker level / cell amount than vehicle control
Conditions in all cases: in DMSO
[1] = compound: OCC(F)(F)C(F)(F)C(F)(F)C(F)(F)C(F)(F)C(F)F [1H,1H,7H-Dodecafluoro-1-heptanol]
Method: (§1)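 BioMAP Diversity Plus panel of 12 human primary cell co-culture systems (3C, 4H, LPS, SAg, BT, BF4T, BE3C, CASM3C, HDF3CGF, KF3CT, MyoF, Mphg). Compounds were added 1 h before stimulation and left for 24 h (MyoF 48 h; BT 72 h for soluble read-outs or 6 d for IgG). Biomarkers were read by ELISA, cytotoxicity by SRB, PBMC viability and proliferation by Alamar Blue. Each well value was divided by the mean of 8 DMSO control wells on the same plate and log10 transformed; duplicate blinded samples were tested at 4 concentrations.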

[2] = compound: O=C(O)C(F)(F)C(F)(F)C(F)(F)C(F)(F)C(F)(F)C(F)(F)C(F)(F)C(F)(F)Cl [9-Chloro-perfluorononanoic acid]
Method: as §1

Perfluorooctanamidine = compound: N=C(N)C(F)(F)C(F)(F)C(F)(F)C(F)(F)C(F)(F)C(F)(F)C(F)(F)F [Perfluorooctanamidine]
Method: as §1

[3] = compound: CC(C)(C)C(=O)CC(=O)C(F)(F)C(F)(F)C(F)(F)F [(Heptafluorobutanoyl)pivaloylmethane]
Method: as §1

Perfluorooctanamide = compound: NC(=O)C(F)(F)C(F)(F)C(F)(F)C(F)(F)C(F)(F)C(F)(F)C(F)(F)F [Perfluorooctanamide]
Method: as §1

1H,1H-Heptafluorobutanol = compound: OCC(F)(F)C(F)(F)C(F)(F)F [1H,1H-Heptafluorobutanol]
Method: as §1

[4] = compound: O=P(O)(O)CCC(F)(F)C(F)(F)C(F)(F)C(F)(F)C(F)(F)C(F)(F)C(F)(F)C(F)(F)F [((Perfluorooctyl)ethyl)phosphonic acid]
Method: as §1

Test System | level (log10) ([1]; 6700 nM) | level (log10) ([1]; 20000 nM) | level (log10) ([1]; 60000 nM) | level (log10) ([2]; 6700 nM) | level (log10) ([2]; 20000 nM) | level (log10) (Perfluorooctanamidine; 6700 nM) | level (log10) (Perfluorooctanamidine; 20000 nM) | level (log10) (Perfluorooctanamidine; 60000 nM) | level (log10) ([3]; 6700 nM) | level (log10) ([3]; 20000 nM) | level (log10) ([3]; 60000 nM) | level (log10) (Perfluorooctanamide; 6700 nM) | level (log10) (Perfluorooctanamide; 20000 nM) | level (log10) (Perfluorooctanamide; 60000 nM) | level (log10) (1H,1H-Heptafluorobutanol; 6700 nM) | level (log10) (1H,1H-Heptafluorobutanol; 20000 nM) | level (log10) (1H,1H-Heptafluorobutanol; 60000 nM) | level (log10) ([4]; 6700 nM) | level (log10) ([4]; 20000 nM) | level (log10) ([4]; 60000 nM)
BE3C:CD87/uPAR | 0.018 ± 0.033 | 0.011 ± 0.0028 | 0.013 ± 0.011 | 0.0445 ± 0.0021 | -0.0005 ± 0.039 | -0.001 ± 0.014 | -0.0035 ± 0.057 | 0.083 | 0.0035 ± 0.032 | 0.0235 ± 0.0078 | -0.0045 ± 0.005 | -0.0475 ± 0.0035 | -0.0065 ± 0.035 | -0.004 ± 0.028 | -0.0115 ± 0.0092 | 0.032 ± 0.018 | 0.0015 ± 0.021 | 0.0235 ± 0.025 | 0.04 ± 0.035 | 0.079 ± 0.038
BT:Secreted IgG | 0.014 ± 0.025 | -0.01 ± 0.028 | -0.0275 ± 0.03 | 0.0065 ± 0.06 | 0.0175 ± 0.011 | 0.0115 ± 0.039 | -0.042 ± 0.0042 | -0.034 | -0.0115 ± 0.016 | -0.009 ± 0.017 | -0.023 ± 0.02 | 0.0065 ± 0.0064 | 0.005 ± 0.023 | 0.0215 ± 0.025 | 0.0305 ± 0.0078 | 0.0055 ± 0.053 | 0.027 ± 0.023 | 0.001 ± 0.02 | 0.0005 ± 0.0035 | -0.02 ± 0.0057
BE3C:IL-1alpha | 0.0085 ± 0.021 | 0.0045 ± 0.0092 | 0.024 ± 0.0057 | 0.023 ± 0.017 | -0.0765 ± 0.026 | 0.0065 ± 0.026 | 0.002 ± 0.0028 | 0.047 | -0.0015 ± 0.021 | -0.0035 ± 0.0035 | -0.003 ± 0.021 | -0.015 ± 0.011 | -0.003 ± 0.0042 | 0.0045 ± 0.0064 | 0.003 ± 0.011 | -0.0095 ± 0.022 | -0.0035 ± 0.018 | -0.017 ± 0.016 | -0.019 ± 0.025 | 0.0085 ± 0.056
BT:sIL-6 | 0.007 ± 0.085 | -0.037 ± 0.014 | -0.113 ± 0.068 | 0.0155 ± 0.022 | 0.0135 ± 0.018 | 0.0205 ± 0.025 | -0.0285 ± 0.016 | -0.097 | -0.038 ± 0.038 | -0.029 ± 0.0057 | -0.013 ± 0.023 | 0.01 ± 0.023 | 0.0355 ± 0.03 | -0.07 ± 0.025 | 0.006 ± 0.044 | 0.049 ± 0.0071 | 0.0385 ± 0.043 | 0.045 ± 0.0014 | 0.0645 ± 0.035 | -0.019 ± 0.055
BE3C:CD54/ICAM-1 | 0.0205 ± 0.029 | 0.01 ± 0.027 | 0.0145 ± 0.012 | 0.0145 ± 0.018 | -0.033 ± 0.014 | -0.017 ± 0.0028 | -0.019 ± 0.0057 | 0.027 | -0.0055 ± 0.005 | -0.008 ± 0.0014 | -0.0185 ± 0.011 | -0.012 ± 0.0042 | -0.0075 ± 0.012 | -0.022 ± 0.033 | -0.0035 ± 0.0092 | -0.0105 ± 0.00071 | 0.0085 ± 0.011 | -0.0275 ± 0.00071 | -0.024 | 0.0045 ± 0.012
LPS:CD106/VCAM-1 | 0 ± 0.0042 | -0.0075 ± 0.00071 | -0.0065 ± 0.019 | -0.008 ± 0.045 | 0.003 ± 0.037 | -0.017 ± 0.014 | -0.0365 ± 0.026 | -0.091 | -0.0315 ± 0.047 | -0.042 ± 0.017 | -0.021 ± 0.034 | -0.0025 ± 0.012 | 0.006 ± 0.0028 | 0.0245 ± 0.00071 | -0.0165 ± 0.0078 | 0.005 ± 0.0014 | 0.0035 ± 0.0021 | -0.011 ± 0.017 | -0.0125 ± 0.0021 | -0.05 ± 0.0028
BE3C:CXCL11/I-TAC | 0.003 ± 0.02 | 0.0115 ± 0.012 | 0.007 ± 0.021 | 0.0515 ± 0.005 | -0.161 ± 0.032 | -0.0055 ± 0.0078 | -0.014 ± 0.016 | -0.014 | -0.0005 ± 0.04 | 0.01 ± 0.037 | 0.024 ± 0.028 | 0.0015 ± 0.013 | 0.004 ± 0.0042 | 0 ± 0.0014 | 0.0065 ± 0.0035 | 0.0145 ± 0.023 | 0.0085 ± 0.023 | -0.0285 ± 0.011 | -0.0225 ± 0.0064 | -0.0205 ± 0.0035
4H:CCL2/MCP-1 | -0.0365 ± 0.016 | -0.028 ± 0.0085 | 0.0135 ± 0.093 | -0.001 ± 0.014 | -0.0245 ± 0.0035 | 0.0095 ± 0.011 | -0.0055 ± 0.0064 | 0.061 | -0.0085 ± 0.012 | -0.006 ± 0.018 | -0.0195 ± 0.059 | -0.016 ± 0.0028 | -0.005 ± 0.0014 | -0.008 | 0.0015 ± 0.0035 | -0.0025 ± 0.00071 | 0.0125 ± 0.026 | -0.01 ± 0.0042 | -0.0135 ± 0.022 | 0.004 ± 0.042
BF4T:CXCL8/IL-8 | 0.016 ± 0.051 | 0.0355 ± 0.04 | 0.0205 ± 0.03 | 0.112 ± 0.042 | 0.0875 ± 0.015 | 0.0025 ± 0.016 | 0.002 ± 0.034 | 0 | -0.0045 ± 0.035 | -0.002 ± 0.0085 | 0.0175 ± 0.029 | -0.0035 ± 0.013 | -0.0005 ± 0.026 | -0.0025 ± 0.03 | 0.019 ± 0.071 | 0.03 ± 0.071 | 0.034 ± 0.089 | 0.0075 ± 0.012 | 0.026 ± 0.017 | 0.0325 ± 0.0092
LPS:M-CSF | 0.0025 ± 0.00071 | 0.0075 ± 0.0035 | 0.01 ± 0.038 | -0.0125 ± 0.0078 | 0.0485 ± 0.047 | -0.0045 ± 0.0078 | -0.011 ± 0.03 | -0.068 | -0.004 ± 0.018 | 0 ± 0.0085 | -0.0125 ± 0.052 | -0.0005 ± 0.022 | -0.0205 ± 0.013 | -0.067 ± 0.0085 | 0.011 ± 0.0071 | -0.007 ± 0.055 | 0.006 ± 0.016 | -0.0385 ± 0.018 | -0.052 ± 0.037 | -0.183 ± 0.072
4H:CD87/uPAR | 0.016 ± 0.014 | 0.001 ± 0.014 | -0.019 ± 0.031 | 0.0055 ± 0.033 | 0.002 ± 0.0099 | 0.0455 ± 0.097 | 0.055 ± 0.028 | 0.146 | -0.005 ± 0.057 | -0.0135 ± 0.036 | 0.016 ± 0.12 | -0.0055 ± 0.037 | 0.0105 ± 0.021 | -0.0285 ± 0.012 | -0.0055 ± 0.035 | 0.004 ± 0.071 | 0.032 ± 0.09 | 0.018 ± 0.058 | -0.003 ± 0.024 | 0.102 ± 0.0064
SAg:PBMC Cytotoxicity | 0.001 ± 0.0099 | 0.028 ± 0.067 | -0.039 ± 0.0028 | 0.032 ± 0.028 | 0.0255 ± 0.032 | 0.011 ± 0.021 | 0.003 ± 0.016 | -0.263 | -0.0265 ± 0.013 | -0.007 ± 0.017 | -0.124 ± 0.15 | -0.027 ± 0.038 | -0.0135 ± 0.025 | 0.024 ± 0.034 | -0.0165 ± 0.012 | -0.024 ± 0.024 | 0.0155 ± 0.047 | -0.025 ± 0.017 | -0.04 ± 0.0042 | -0.037 ± 0.037
LPS:CD40 | -0.0085 ± 0.03 | 0.026 ± 0.023 | -0.013 ± 0.038 | 0.02 ± 0.064 | 0.055 ± 0.0071 | -0.0145 ± 0.04 | -0.0525 ± 0.021 | -0.148 | 0.0275 ± 0.066 | 0.028 ± 0.068 | 0.0515 ± 0.0021 | -0.034 ± 0.021 | -0.015 ± 0.0057 | -0.0265 ± 0.028 | 0.056 ± 0.023 | 0.0345 ± 0.0064 | 0.0045 ± 0.049 | -0.042 ± 0.041 | -0.0535 ± 0.00071 | -0.148 ± 0.0035
